Reference: PMC6058519, “Retro-inverso follicle-stimulating hormone peptide-mediated polyethylenimine complexes for targeted ovarian cancer gene therapy” (Drug Delivery, 2018)
Where no end group is shown, it is not given here.

Legend:
[1] = biological target: T1, Aminopeptidase M (leucine aminopeptidase, microsomal from porcine kidney) (Sus scrofa, UniProt P15145); experiment: In vitro stability of peptides against aminopeptidase M; assay type: in vitro ADME; details: aminopeptidase M 1 μg/mL, 37 °C, peptide 0.5 mg/mL, incubation up to 12 h, RP-HPLC C18, UV 214 nm, triplicate
T1 construct: purchased Sigma-Aldrich; host or cells: porcine kidney microsomes (tissue-derived)
T1 sequence (P15145 1-963): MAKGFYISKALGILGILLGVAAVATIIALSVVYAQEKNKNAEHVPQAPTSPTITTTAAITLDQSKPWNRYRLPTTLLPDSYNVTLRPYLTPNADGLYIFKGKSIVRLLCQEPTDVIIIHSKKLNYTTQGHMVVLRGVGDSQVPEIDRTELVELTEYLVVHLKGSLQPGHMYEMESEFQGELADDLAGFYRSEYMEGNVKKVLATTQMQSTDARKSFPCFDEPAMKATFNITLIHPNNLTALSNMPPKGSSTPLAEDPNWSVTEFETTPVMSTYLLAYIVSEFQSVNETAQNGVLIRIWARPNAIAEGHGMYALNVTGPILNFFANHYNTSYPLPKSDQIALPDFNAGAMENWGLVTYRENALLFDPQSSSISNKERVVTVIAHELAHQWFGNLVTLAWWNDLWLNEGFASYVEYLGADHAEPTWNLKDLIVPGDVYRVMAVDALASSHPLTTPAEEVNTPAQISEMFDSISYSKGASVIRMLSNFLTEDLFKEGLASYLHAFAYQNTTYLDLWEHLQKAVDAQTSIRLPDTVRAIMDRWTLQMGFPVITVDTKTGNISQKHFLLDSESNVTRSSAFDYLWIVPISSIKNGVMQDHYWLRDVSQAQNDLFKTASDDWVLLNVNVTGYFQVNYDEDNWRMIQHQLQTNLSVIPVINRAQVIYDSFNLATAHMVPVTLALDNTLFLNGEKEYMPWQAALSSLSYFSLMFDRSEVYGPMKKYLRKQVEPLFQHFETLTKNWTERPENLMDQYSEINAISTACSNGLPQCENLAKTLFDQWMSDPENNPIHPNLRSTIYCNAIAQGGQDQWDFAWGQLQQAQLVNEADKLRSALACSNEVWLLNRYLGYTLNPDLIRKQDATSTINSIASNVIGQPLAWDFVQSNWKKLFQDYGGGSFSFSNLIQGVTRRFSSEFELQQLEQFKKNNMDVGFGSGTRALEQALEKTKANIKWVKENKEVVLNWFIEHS
Text: L-FP21, D-FP21, Rhodamine-L-FP21, and Rhodamine-D-FP21 were purchased from ChinaPeptides (Shanghai, China) (Figure S3). Rat serum was obtained from Jianlun Biology Technology Co. (Guangzhou, China). Aminopeptidase M (leucine aminopeptidase, microsomal from porcine kidney Type VI − S, lyophilized powder, EC 3.4.11.2) and the Endotoxin-free Plasmid Maxiprep Kit used to purify the plasmid DNA before application were obtained from Sigma–Aldrich (USA). Cell Counting Kit-8 (CCK-8 Kit) was purchased from Beyotime Biotechnology (Tianjing, China). Odyssey Blocking Buffer was obtained from LI-COR Biosciences (Lincoln, Nebraska, USA). The plasmids encoding enhanced green fluorescence protein (EGFP; pEGFP-N) were purchased from KeyGEN BioTECH (Nanjing, China). The vector construction of GRO-α shRNA was pcDNA6.2-GW/Emgfp-miR (Invitrogen, Carlsbad, CA), and the target knockdown gene encoding was TGGTTTT GGCCACTG. […]
The L-FP21 and D-FP21 peptides were diluted to 0.5 mg/mL and incubated at 37 °C for 12 h for the biostability test against 20% rat serum. At predetermined time intervals, 100 μL of the sample was removed and analyzed using reverse-phase high-performance liquid chromatography (HPLC; Waters Acquity H-Class Bio, Waters Co. Ltd., Milford, MA) on a bridged ethylene hybrid (BEH) C18 column (2.1 mm ×50 mm, 1.7 μm) using a gradient method. […] The peptides were then analyzed as described above. […]

[2] = In vitro stability of peptides in 20% rat serum; assay type: in vitro ADME; details: 37 °C, peptide 0.5 mg/mL, incubation up to 12 h, RP-HPLC C18, UV 214 nm, triplicate
Procedure: The L-FP21 and D-FP21 peptides were diluted to 0.5 mg/mL and incubated at 37 °C for 12 h for the biostability test against 20% rat serum. At predetermined time intervals, 100 μL of the sample was removed and analyzed using reverse-phase high-performance liquid chromatography (HPLC; Waters Acquity H-Class Bio, Waters Co. Ltd., Milford, MA) on a bridged ethylene hybrid (BEH) C18 column (2.1 mm ×50 mm, 1.7 μm) using a gradient method. The mobile phase A was purified water containing 0.1% (v/v) formic acid (FA). The mobile phase B was acetonitrile containing 0.1% FA. The 30-min linear elution gradient ran from 5% B to 45% B in […] at a flow rate of 0.6 mL/min with a detection wavelength of 214 nm. We used aminopeptidase to further investigate the stability of L-FP21 or D-FP21 in proteolytic enzymes. The aminopeptidase was added with a final concentration of 1 μg/mL. The peptides were then analyzed as described above. All the experiments were performed in triplicate.

- time to complete degradation in aminopeptidase [1]: ≤ 6 h
- time to complete degradation in rat serum [2]: ≤ 2 h
Sequence: YTRDLVYGDPARPGIQGTGTF [L-FP21]
